Assay results published in US7872047B2, “Esters of long-chain alcohols and preparation thereof” (Eastman Chemical Company, priority 2008, dated 2011).

Assay: Oxidative Stability Index (OSI) accelerated oxidation test in simple skin lipid model
Conditions: for onset of lipid oxidation over the untreated control (antioxidant effect): 1% idebenone, 1% or 2% idebenone linoleate in SLMM, p<0.01; for Avg. OSI (stdev) Hours at 80° C.: air bubbled, induction period, triplicate; for Calculated OSI Hours at 35° C.: estimated for 35° C. (skin surface temperature) with instrument software
Excerpt: Oxidation of skin lipids can contribute to an aged appearance and other undesirable effects on skin condition. A simple skin lipid model (based on fatty acids found in skin) can be used to evaluate and predict the topical effectiveness of different compounds to inhibit skin lipid oxidation and improve the condition of skin (Narayanan, S.: Hunerbein, A.: Getie, M.; Jackel, A.; Neubert, R. H. Scavenging properties of metronidazole on free oxygen radicals in a skin lipid model system. J Pharm Pharmacol. 2007 August;59(8):1125-30).
Lipid oxidation can be measured by a number of analytical methods. An accelerated oxidation test such as the Oxidative Stability Index (OSI) is accepted as a method for determining both oxidative stability of lipids as well as antioxidant effectiveness (Bartee, S. D.; Kim, H. J.; Min, D. B. Effects of antioxidants on the oxidative stability of oils containing arachidonic, docosapentaaenoic and docosahexaenoic acids. J Amer Oil Chem Soc 2007 84: 363-68.; Official methods and recommended practices of the AOCS, 5th Edition, AOCS 1998).
In this example, the OSI method was used to assess the antioxidant activity of idebenone esters by measuring their ability to inhibit lipid oxidation in a mixture of fatty acids that are present in skin lipids. The composition of the simple skin lipid model tested is 74% linoleic acid; 21% oleic acid; 4% linolenic acid. The simple skin lipid model includes a large proportion of polyunsaturated and unsaturated fatty acids, which are prone to oxidation.
The untreated sample was composed of the simple skin lipid model (fatty acid mixture). The treated samples were prepared by dissolving the test materials in the simple skin lipid model at 1 or 2 wt % at room temperature. The treated and untreated lipid matrices were oxidized by heating the test solutions to 80° C. and bubbling air through the samples. The OSI (induction period in hours) was determined using an Oxidative Stability Instrument (Omnion, Inc. Rockville Md.) and the method of Bartee et al., 2007. Untreated and treated samples were tested in triplicate, and the average and standard deviation are included in Table 1. The OSI (induction period in hours) was also estimated for oxidation at 35° C. (simulating skin surface temperature) using the software supplied with the instrument.

SMILES	onset of lipid oxidation over the untreated control (antioxidant effect)	Avg. OSI (stdev) Hours at 80° C. (1 wt % test material in SLMM)	Calculated OSI Hours at 35° C. (1 wt % test material in SLMM) [h]	Avg. OSI (stdev) Hours at 80° C. (2 wt % test material in SLMM)	Calculated OSI Hours at 35° C. (2 wt % test material in SLMM) [h]
CCCCC/C=C\C/C=C\CCCCCCCC(=O)OCCCCCCCCCCC1=C(C)C(=O)C(OC)=C(OC)C1=O [idebenone linoleate, Idebenone Linoleate]	significantly delayed the onset of lipid oxidation	2.50 (0.54) Hours	56.2	3.22 (0.67) Hours	72.4
COC1=C(OC)C(=O)C(CCCCCCCCCCO)=C(C)C1=O [idebenone, Idebenone, reference compound]	significantly delayed the onset of lipid oxidation	2.77 (0.14) Hours	62.3		
